Experimental data from patent US20190144375A1, “NOVEL CARBOCYCLIC COMPOUNDS AS ROR GAMMA MODULATORS” (Glenmark Pharmaceuticals S.A., priority 2015, published 2019).

Biological target: T1, GST-tagged ROR gamma ligand binding domain (LBD) (Homo sapiens, UniProt P51449)
T1 construct: purchased Invitrogen
T1 sequence (P51449 269-508 limits assumed): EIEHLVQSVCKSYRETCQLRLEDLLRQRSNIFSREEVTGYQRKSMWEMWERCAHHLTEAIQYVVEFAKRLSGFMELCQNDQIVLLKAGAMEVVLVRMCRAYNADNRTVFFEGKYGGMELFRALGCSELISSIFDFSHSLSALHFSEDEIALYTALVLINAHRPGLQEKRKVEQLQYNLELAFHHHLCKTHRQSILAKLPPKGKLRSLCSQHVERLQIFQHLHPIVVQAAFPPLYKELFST
Assay: TR-FRET assay for ROR gamma (LanthaScreen, Fluorescein-D22 co-activator peptide recruitment)
Assay type: biochemical
Conditions: for inhibition at 1 µM: 1 μM compound; for inhibition at 1 µM / inhibition at 10 µM: TR-FRET ratio 520/495; for inhibition at 10 µM: 10 μM compound; for IC50: dose response curve, class symbols
Excerpt: The compounds described herein were screened for ROR gamma modulator activity using the TR-FRET assay (LanthaScreen™ available from Invitrogen of Carlsbad, Calif.) as described in JBC 2011, 286, 26: 22707-10; and Drug Metabolism and Disposition 2009, 37, 10: 2069-78.
The assay is based on the principle that binding of the agonist to the ROR gamma causes a conformational change around helix 12 in the ligand binding domain, resulting in higher affinity for the co-activator peptide. ROR gamma being constitutively active, the Fluorescein-D22 co-activator peptide used in the assay is recruited in the absence of a ligand. Binding of the co-activator peptide, causes an increase in the TR-FRET signal while binding of an antagonist decreases the recruitment of the co-activator peptide, causing a decrease in the TR-FRET signal compared to control with no compound. The assay was performed using a two-step procedure, pre-incubation step with the compound followed by the detection step on addition of the anti-GST tagged terbium (Tb) and fluorescein tagged fluorophores as the acceptor.
Test compounds or reference compounds such as T0901317 (Calbiochem) were dissolved in dimethylsulfoxide (DMSO) to prepare 10.0 mM stock solutions and diluted to the desired concentration. The final concentration of DMSO in the reaction was 4% (v/v). The assay mixture was prepared by mixing 10 nM of the GST-tagged ROR gamma ligand binding domain (LBD) in the assay buffer containing 25 mM HEPES, 100 mM NaCl, 5 mM DTT and 0.01% BSA with or without the desired concentration of the compound. The reaction was incubated at 22° C. for 1 hour. The pre-incubation step was terminated by addition of the detection mixture containing 300 nM Fluorescein-D22 co-activator peptide and 10 nM lantha screen Tb-anti GST antibody into the reaction mixture. After shaking for 5 minutes the reaction was further incubated for 1 hour at room temperature and read […] on an Infinite F500 reader as per the kit instructions (Invitrogen). The inhibition of test compound was calculated based on the TR-FRET ratio of 520/495. The activity was calculated as a percent of control reaction. IC50 values were calculated from dose response curve by nonlinear regression analysis using GraphPad Prism software.
Percentage inhibition at concentrations of 1.0 μM and 10.0 μM are given in the table along with IC50 (nM) details for selected examples.

SMILES | inhibition at 1 µM | inhibition at 10 µM | IC50
Cc1ccc(N(C)C(=O)c2ccc(NC(=O)Cc3ccc(C(F)(F)[C@H](C)O)cc3)cc2)c(Cl)c1 [Example 30, (S)—N-(2-Chloro-4-methylphenyl)-4-(2-(4-(1,1-difluoro-2-hydroxypropyl)phenyl)acetamido)-N-methylbenzamide] | 85.5% | 88.7% | < 50 nM
Cc1cc(C)c(N(C)C(=O)c2ccc(NC(=O)Cc3ccc(C(F)(F)C(C)O)cc3)cc2)c(Cl)c1 (stereo not shown) [Example 33] | 86.8% | 90.2% | < 50 nM
CC(O)C(F)(F)c1ccc(CC(=O)Nc2ccc(C(=O)N(C)c3cc(Cl)cc(Cl)c3)cc2)cc1 (stereo not shown) [Example 21, N-(3,5-dichlorophenyl)-4-(2-(4-(1,1-difluoro-2-hydroxypropyl)phenyl)acetamido)-N-methylbenzamide] | 82.2% | 87.9% | < 50 nM
Cc1ccc(Cl)c(N(C)C(=O)c2ccc(NC(=O)Cc3ccc(C(F)(F)C(C)O)cc3)cc2)c1 (stereo not shown) [Example 27] | 90.1% | 92% | < 50 nM
COCC(F)(F)c1ccc(CC(=O)Nc2ccc(C(=O)N(C)[C@H](C)c3ccc(Cl)cc3)cc2)cc1 [Example 16] | 84.5% | 93.7% | > 100 nM
Cc1cc(C)c(N(C)C(=O)c2ccc(NC(=O)Cc3ccc(C(F)(F)C(C)O)cc3)cc2)c(C)c1 (stereo not shown) [Example 32] | 84.9% | 95% | 50 to 100 nM
Cc1cc(C)cc(N(C)C(=O)c2ccc(NC(=O)Cc3ccc(C(F)(F)C(C)(C)O)cc3)cc2)c1 [Example 9, 4-(2-(4-(1,1-difluoro-2-hydroxy-2-methylpropyl)phenyl)acetamido)-N-(3,5-dimethylphenyl)-N-methylbenzamide] | 86.2% | 97% | > 100 nM
CCOC(=O)C(F)(F)c1ccc(CC(=O)Nc2ccc(C(=O)N(C)c3ccc(Cl)cc3)cc2)cc1 [Example 1, Ethyl 2-(4-(2-((4-((4-chlorophenyl)(methyl)carbamoyl)phenyl)amino)-2-oxoethyl)phenyl)-2,2-difluoroacetate] | 27.6% | 64.5% | –
CCC(F)(F)c1ccc(CC(=O)Nc2ccc(C(=O)N(C)c3ccccc3Cl)cc2)cc1 [Example 6] | 90.9% | 91.2% | < 50 nM
CCC(F)(F)c1ccc(CC(=O)Nc2ccc(C(=O)N(C)c3cc(Cl)ccc3Cl)cc2)cc1 [Example 4] | 88.5% | 91.1% | < 50 nM
CC(O)C(F)(F)c1ccc(CC(=O)Nc2ccc(C(=O)N(C)c3cccc(Cl)c3F)cc2)cc1 (stereo not shown) [Example 26] | 86.4% | 93.2% | < 50 nM
CCC(F)(F)c1ccc(CC(=O)Nc2ccc(C(=O)N(CC(F)(F)F)c3cccc(Cl)c3)cc2)cc1 [Example 14] | 84% | 87.6% | < 50 nM
CC(O)C(F)(F)c1ccc(CC(=O)Nc2ccc(C(=O)N(C)c3cc(Cl)ccc3Cl)cc2)cc1 (stereo not shown) [Example 5, N-(2,5-Dichlorophenyl)-4-(2-(4-(1,1-difluoro-2-hydroxypropyl)phenyl)acetamido)-N-methylbenzamide] | 87.6% | 94.3% | < 50 nM
CCC(F)(F)c1ccc(CC(=O)Nc2ccc(C(=O)N(C)c3cc(C)cc(C)c3)cc2)cc1 [Example 11] | 90.1% | 92.9% | < 50 nM
Cc1cc(C)cc(N(C)C(=O)c2ccc(NC(=O)Cc3ccc(C(F)(F)C(C)O)cc3)cc2)c1 (stereo not shown) [Example 8] | 94.8% | 96.5% | < 50 nM
Cc1ccc(N(C)C(=O)c2ccc(NC(=O)Cc3ccc(C(F)(F)[C@@H](C)O)cc3)cc2)c(Cl)c1 [Example 29, (R)—N-(2-Chloro-4-methylphenyl)-4-(2-(4-(1,1-difluoro-2-hydroxypropyl)phenyl)acetamido)-N-methylbenzamide] | 80.7% | 87.1% | < 50 nM
Cc1ccc(C2CC2)cc1N(C)C(=O)c1ccc(NC(=O)Cc2ccc(C(F)(F)C(C)O)cc2)cc1 (stereo not shown) [Example 39] | 84.1% | 92% | < 50 nM
Cc1cc(Cl)ccc1N(C)C(=O)c1ccc(NC(=O)Cc2ccc(C(F)(F)C(C)O)cc2)cc1 (stereo not shown) [Example 24] | 82.6% | 88.7% | < 50 nM

SMILES | inhibition at 1 µM | inhibition at 10 µM | IC50
Cc1ccc(N(C)C(=O)c2ccc(NC(=O)Cc3ccc(C(F)(F)C(C)O)cc3)cc2)c(C2CC2)c1 (stereo not shown) [Example 34] | 91.8% | 92.6% | < 50 nM
COCC(F)(F)c1ccc(CC(=O)Nc2ccc(C(=O)N(C)c3cc(C)cc(C)c3)cc2)cc1 [Example 10] | 93.2% | 95.3% | < 50 nM
Cc1cc(C)cc(N(C)C(=O)c2ccc(NC(=O)Cc3ccc(C(F)(F)CO)cc3)cc2)c1 [Example 7] | 87.5% | 95.1% | < 50 nM
CC(O)C(F)(F)c1ccc(CC(=O)Nc2ccc(C(=O)N(C)[C@@H](c3ccc(Cl)cc3)C3CC3)cc2)cc1 (stereo partly shown) [Example 19] | 82.6% | 92.8% | 50 to 100 nM
CC(O)C(F)(F)c1ccc(CC(=O)Nc2ccc(C(=O)N(C)c3ccccc3Cl)cc2)cc1 (stereo not shown) [Example 15] | 85.5% | 92.8% | < 50 nM
Cc1cccc(Cl)c1N(C)C(=O)c1ccc(NC(=O)Cc2ccc(C(F)(F)C(C)O)cc2)cc1 (stereo not shown) [Example 31] | 79.1% | 86.6% | 50 to 100 nM
Cc1cc(N(C)C(=O)c2ccc(NC(=O)Cc3ccc(C(F)(F)C(C)O)cc3)cc2)c(F)cc1Cl (stereo not shown) [Example 37] | 93.9% | 96.3% | < 50 nM
Cc1cc(C)cc(N(C)C(=O)c2ccc(NC(=O)Cc3ccc(C(F)(F)[C@@H](C)O)cc3)cc2)c1 [Example 36] | 89.7% | 94.5% | < 50 nM
Cc1ccc(F)c(N(C)C(=O)c2ccc(NC(=O)Cc3ccc(C(F)(F)C(C)O)cc3)cc2)c1 (stereo not shown) [Example 28] | 90.5% | 93.9% | < 50 nM
CCC(F)(F)c1ccc(CC(=O)Nc2ccc(C(=O)N(C)c3cc(C)cc(-c4ccccc4F)c3)cc2)cc1 [Example 13] | 87.5% | 90.6% | 50 to 100 nM
CCC(F)(F)c1ccc(CC(=O)Nc2ccc(C(=O)N(C)[C@@H](C)c3ccc(Cl)cc3)cc2)cc1 [Example 20] | 61.5% | 75% | –
CN(C(=O)c1ccc(NC(=O)Cc2ccc(C(F)(F)CO)cc2)cc1)c1ccc(Cl)cc1 [Example 3, N-(4-chlorophenyl)-4-(2-(4-(1,1-difluoro-2-hydroxyethyl)phenyl)acetamido)-N-methylbenzamide] | 75% | 85.8% | > 100 nM
CCC(F)(F)c1ccc(CC(=O)Nc2ccc(C(=O)N(C)[C@H](C)c3ccc(Cl)cc3)cc2)cc1 [Example 17] | 87.1% | 90.8% | < 50 nM
CC(O)C(F)(F)c1ccc(CC(=O)Nc2ccc(C(=O)N(C)c3cc(C4CC4)ccc3Cl)cc2)cc1 (stereo not shown) [Example 40] | 90.8% | 94.3% | < 50 nM
CCC(F)(F)c1ccc(CC(=O)Nc2ccc(C(=O)N(C)[C@@H](c3ccc(Cl)cc3)C3CC3)cc2)cc1 [Example 18] | 87.4% | 90% | < 50 nM
CC(O)C(F)(F)c1ccc(CC(=O)Nc2ccc(C(=O)N(C)c3ccc(C4CC4)cc3Cl)cc2)cc1 (stereo not shown) [Example 38] | 92.6% | 94.8% | < 50 nM
Cc1cc(-c2ccccc2F)cc(N(C)C(=O)c2ccc(NC(=O)Cc3ccc(C(F)(F)C(C)O)cc3)cc2)c1 (stereo not shown) [Example 12] | 89.4% | 93.7% | 50 to 100 nM
Cc1ccc(N(C)C(=O)c2ccc(NC(=O)Cc3ccc(C(F)(F)C(C)O)cc3)cc2)c(Cl)c1 (stereo not shown) [Example 23] | 88.8% | 93.2% | < 50 nM
